# According to patent US20250034159A1, “INHIBITORS OF EPIDERMAL GROWTH FACTOR RECEPTOR” (ORIC Pharmaceuticals, Inc., priority 2021, published 2025):
# Where two headings read alike, the source gives them in different places.
# How the values were obtained:
# BaF3_EGFR LR/CS cells = assay: Biological Activity Assay D: BaF3 cell proliferation assay, EGFR L858R/C797S mutant (BaF3 LR/CS); format: cell-based; conditions: Ba/F3 EGFR, read-out: BaF3 LR/CS IC50
# BaF3_EGFR d19/CS cells = assay: Biological Activity Assay D: BaF3 cell proliferation assay, EGFR exon 19 deletion/C797S (BaF3 d19/CS); format: cell-based; conditions: Ba/F3 EGFR, read-out: BaF3 d19/CS IC50
# [1] = target: recombinant human EGFR L858R/C797S double mutant protein (Homo sapiens (Human), UniProt P00533, C797S/L858R); assay: Biological Activity Assay B: biochemical assay against EGFR L858R/C797S protein (EGFR LR/CS)
# Description: In Row A of a 384-well polypropylene plate, was added 48 μL of DMSO. In wells A1 and A24, were added 12 μL of DMSO. […] To a well in Row A were added 12 μL of each 10 mM test compound stock (100% DMSO). […] The final intermediate dilution plate contained 4×16-point compound serial dilutions in assay buffer. The DMSO concentration was 10%. The intermediate compound dilution plate was transferred to the Bravo and the “5 uL dispense into ARP.pro” protocol was run. To the black low volume assay ready plates, were added 5 μL of 40 uM Phosphosens peptide sensor/4 mM ATP working solution to each well. […] To column 24, was added 10 μL of assay buffer. The final DMSO concentration was 2.5%. […] The plates were sealed with the TopSeal-A Plus plate seals. […] Set for 90 cycles with 120 second interval. […] The slope of each curve was constructed using Dotmatics in each well, and each IC50s was calculated using a 4-parameter fit model.
# Ba/F3_EGFR WT cells = assay: Biological Activity Assay D: BaF3 cell proliferation assay, EGFR wild-type (BaF3 WT); format: cell-based; conditions: Ba/F3 EGFR, read-out: BaF3 WT IC50
# [2] = target: recombinant human EGFR exon 19 deletion/C797S double mutant protein (Homo sapiens (Human), UniProt P00533, C797S/DEL746-750); assay: Biological Activity Assay C: biochemical assay against EGFR exon 19 deletion/C797S protein (EGFR d19/CS)
# Summary of the method: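 IC50 values were fitted with a 4-parameter model to reaction slopes taken from 90 kinetic reads spaced 120 s apart. The Phosphosens sensor/ATP working solution was 40 uM/4 mM, and compound was dosed as 16-point dilutions at 2.5% final DMSO.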
# [3] = BaF3_EGFR LR/CS cells, ~72 hours, CellTiter-Glo
# [4] = BaF3_EGFR d19/CS cells, ~72 hours, CellTiter-Glo
# [5] = Ba/F3_EGFR WT cells, ~72 hours, CellTiter-Glo
# Chain of recombinant human EGFR L858R/C797S double mutant protein (P00533 25-1210 C797S/L858R): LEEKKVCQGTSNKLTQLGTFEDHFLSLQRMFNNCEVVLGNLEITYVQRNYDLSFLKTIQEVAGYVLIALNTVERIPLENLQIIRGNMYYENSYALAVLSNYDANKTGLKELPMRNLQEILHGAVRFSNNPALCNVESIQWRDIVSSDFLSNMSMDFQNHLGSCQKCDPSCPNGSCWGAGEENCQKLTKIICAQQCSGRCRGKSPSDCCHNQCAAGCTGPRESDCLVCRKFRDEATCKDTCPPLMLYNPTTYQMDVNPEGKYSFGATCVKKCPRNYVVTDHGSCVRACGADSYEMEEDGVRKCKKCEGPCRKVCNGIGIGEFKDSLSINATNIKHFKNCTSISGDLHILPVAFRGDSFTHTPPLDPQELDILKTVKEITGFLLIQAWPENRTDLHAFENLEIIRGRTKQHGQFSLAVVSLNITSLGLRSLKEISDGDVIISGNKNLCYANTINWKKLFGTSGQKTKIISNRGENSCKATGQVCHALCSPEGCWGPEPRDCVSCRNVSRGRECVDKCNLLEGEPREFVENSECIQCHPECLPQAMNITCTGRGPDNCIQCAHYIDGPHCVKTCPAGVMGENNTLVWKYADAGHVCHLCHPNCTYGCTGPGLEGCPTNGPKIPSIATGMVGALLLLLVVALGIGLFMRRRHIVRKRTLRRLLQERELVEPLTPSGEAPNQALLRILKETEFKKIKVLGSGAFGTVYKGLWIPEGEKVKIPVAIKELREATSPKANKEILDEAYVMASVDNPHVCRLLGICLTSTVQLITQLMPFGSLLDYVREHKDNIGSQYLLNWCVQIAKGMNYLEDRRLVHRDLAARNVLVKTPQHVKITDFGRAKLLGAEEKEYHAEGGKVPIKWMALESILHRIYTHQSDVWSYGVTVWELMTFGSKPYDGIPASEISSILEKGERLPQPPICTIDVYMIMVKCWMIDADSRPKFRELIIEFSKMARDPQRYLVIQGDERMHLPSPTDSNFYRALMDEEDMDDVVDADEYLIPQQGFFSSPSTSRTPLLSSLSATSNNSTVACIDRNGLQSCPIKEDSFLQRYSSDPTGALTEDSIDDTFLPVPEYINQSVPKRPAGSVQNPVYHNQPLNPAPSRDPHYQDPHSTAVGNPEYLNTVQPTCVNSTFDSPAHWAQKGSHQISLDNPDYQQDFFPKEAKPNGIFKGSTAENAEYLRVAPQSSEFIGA
# Chain of recombinant human EGFR exon 19 deletion/C797S double mutant protein (P00533 other isoform, or with tags, fused parts or gaps C797S/del 1-668/del 746-750 limits assumed): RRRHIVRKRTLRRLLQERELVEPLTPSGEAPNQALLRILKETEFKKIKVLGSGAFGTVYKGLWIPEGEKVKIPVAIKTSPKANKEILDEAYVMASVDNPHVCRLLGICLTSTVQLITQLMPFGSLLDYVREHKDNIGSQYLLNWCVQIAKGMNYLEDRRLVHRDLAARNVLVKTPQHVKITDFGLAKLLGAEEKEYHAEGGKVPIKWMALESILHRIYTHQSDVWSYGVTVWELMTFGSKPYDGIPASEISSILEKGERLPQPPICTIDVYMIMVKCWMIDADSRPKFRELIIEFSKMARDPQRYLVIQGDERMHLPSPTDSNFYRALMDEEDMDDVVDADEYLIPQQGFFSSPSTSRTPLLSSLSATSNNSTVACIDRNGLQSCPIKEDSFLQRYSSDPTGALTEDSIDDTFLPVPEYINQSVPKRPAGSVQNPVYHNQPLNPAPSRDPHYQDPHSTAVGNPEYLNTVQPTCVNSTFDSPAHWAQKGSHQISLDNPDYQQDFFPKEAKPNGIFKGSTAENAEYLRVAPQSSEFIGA
IC50 (BaF3_EGFR LR/CS cells; [3]) [nM],IC50 (BaF3_EGFR d19/CS cells; [4]) [nM],IC50 [1] [nM],IC50 (Ba/F3_EGFR WT cells; [5]) [nM],IC50 [2] [nM],Structure (SMILES),IC50 (BaF3_EGFR LR/CS cells; 72 h) [nM],IC50 (BaF3_EGFR d19/CS cells; 72 h) [nM],IC50 (Ba/F3_EGFR WT cells; 72 h) [nM]
174,98,1.67,10600,0.46,"O=S1(=O)CC(n2nc(-c3ccc(F)cc3)c(-c3ncnc4oc(-c5ccccc5)cc34)n2)C1 [Example 104, 3-[4-(4-Fluorophenyl)-5-(6-phenylfuro[2,3-d]pyrimidin-4-yl)-2H-1,2,3-triazol-2-yl]-1λ6-thietane-1,1-dione]",,,
130,105,1.59,1520,0.45,"CC(=O)N1CC=C(c2cc3c(-c4cn(C5CS(=O)(=O)C5)nc4-c4ccc(F)cc4)ncnc3o2)CC1 [Example 108, 3-{4-[6-(1-Acetyl-1,2,3,6-tetrahydropyridin-4-yl)furo[2,3-d]pyrimidin-4-yl]-3-(4-fluorophenyl)-1H-pyrazol-1-yl}-1λ6-thietane-1,1-dione]",,,
689,1290,16.8,7390,10.3,"CC(C)(O)CCc1nc(-c2ccc(F)cc2)c(-c2ncnc3oc(-c4ccccc4)nc23)o1 [Example 57, 4-[4-(4-fluorophenyl)-5-(2-phenyl[1,3]oxazolo[5,4-d]pyrimidin-7-yl)-1,3-oxazol-2-yl]-2-methylbutan-2-ol]",,,
69.9,31.9,1.1,2650,0.633,"OCCCCn1nc(-c2ccc(F)cc2)c(-c2ccnc3[nH]c(-c4ccccc4)cc23)n1 [Example 23, 4-[4-(4-Fluorophenyl)-5-(2-phenyl-1H-pyrrolo[2,3-b]pyridin-4-yl)-2H-1,2,3-triazol-2-yl]butan-1-ol]",,,
578,686,4.92,5340,4.19,"CCC(=O)CCn1cc(-c2ncnc3oc(-c4ccccc4)nc23)c(-c2ccc(F)cc2)n1 [Example 20, 1-[3-(4-fluorophenyl)-4-(2-phenyl[1,3]oxazolo[5,4-d]pyrimidin-7-yl)-1H-pyrazol-1-yl]pentan-3-one]",,,
61.6,34.7,0.518,2390,0.375,"O=S1(=O)CCC(n2cc(-c3ncnc4oc(-c5ccccc5)cc34)c(-c3ccc(F)cc3)n2)C1 (stereo not shown) [Example 41, 3-[3-(4-fluorophenyl)-4-(6-phenylfuro[2,3-d]pyrimidin-4-yl)-1H-pyrazol-1-yl]-1λ6-thiolane-1,1-dione]",,,
770,972,17.1,10700,27.2,"CN(C)S(=O)(=O)n1cc(-c2ncnc3oc(-c4ccccc4)cc23)c(-c2ccc(F)cc2)n1 [Example 51, 3-(4-fluorophenyl)-N,N-dimethyl-4-(6-phenylfuro[2,3-d]pyrimidin-4-yl)-1H-pyrazole-1-sulfonamide]",,,
260,319,1.72,4440,1.88,N#CCn1cc(-c2ncnc3oc(-c4ccccc4)cc23)c(-c2ccc(F)cc2)n1 [Example 30],,,
15.7,23.6,0.4,667,0.18,"CC(C)(O)Cn1cc(-c2ncnc3oc(-c4ccccc4)cc23)c(-c2ccccc2F)n1 [Example 109, 1-[3-(2-Fluorophenyl)-4-(6-phenylfuro[2,3-d]pyrimidin-4-yl)-1H-pyrazol-1-yl]-2-methylpropan-2-ol]",,,
208,464,8.65,11700,3.12,"OCCn1nc(-c2ccc(F)cc2)c(-c2ncnc3[nH]c(-c4ccccc4)nc23)n1 [Example 27, 2-[4-(4-Fluorophenyl)-5-(8-phenyl-9H-purin-6-yl)-2H-1,2,3-triazol-2-yl]ethan-1-ol]",,,
31.6,110,0.41,703,0.31,"O=S1(=O)CCCC(Cn2cc(-c3ncnc4oc(-c5ccccc5)cc34)c(-c3ccc(F)cc3)n2)C1 (racemic) [Example 115, 3-{[3-(4-Fluorophenyl)-4-(6-phenylfuro[2,3-d]pyrimidin-4-yl)-1H-pyrazol-1-yl]methyl}-1λ6-thiane-1,1-dione]",,,
7.9,11.5,0.328,681,0.346,"N#CCCn1cc(-c2ncnc3oc(-c4ccccc4)cc23)c(-c2ccc(F)cc2)n1 [Example 70, 3-[3-(4-Fluorophenyl)-4-(6-phenylfuro[2,3-d]pyrimidin-4-yl)-1H-pyrazol-1-yl]propanenitrile]",,,
3660,4100,197,20000,90.9,"CC(C)(O)CCn1ncc(-c2ncnc3oc(-c4ccccc4)nc23)c1-c1ccc(F)cc1 [Example 22, 4-[5-(4-fluorophenyl)-4-(2-phenyl[1,3]oxazolo[5,4-d]pyrimidin-7-yl)-1H-pyrazol-1-yl]-2-methylbutan-2-ol]",,,
390,429,6.25,7380,6.67,"CC(=O)N1CC(n2cc(-c3ncnc4oc(-c5ccccc5)cc34)c(-c3ccc(F)cc3)n2)C1 [Example 86, 1-{3-[3-(4-fluorophenyl)-4-(6-phenylfuro[2,3-d]pyrimidin-4-yl)-1H-pyrazol-1-yl]azetidin-1-yl}ethan-1-one]",,,
35.5,50.9,0.7,1340,0.34,"Fc1ccc(-c2nn(CC(F)F)cc2-c2ncnc3oc(-c4ccccc4)cc23)cc1 [Example 119, 4-[1-(2,2-Difluoroethyl)-3-(4-fluorophenyl)-1H-pyrazol-4-yl]-6-phenylfuro[2,3-d]pyrimidine]",,,
4.4,5.81,0.253,1100,0.148,"OCCCn1cc(-c2ncnc3[nH]c(-c4ccccc4)nc23)c(-c2ccc(F)cc2)n1 [Example 6, 3-[3-(4-Fluorophenyl)-4-(8-phenyl-9H-purin-6-yl)-1H-pyrazol-1-yl]propan-1-ol]",,,
73.2,24.4,0.601,1140,0.907,"CN(C)S(=O)(=O)CCCn1cc(-c2ncnc3oc(-c4ccccc4)cc23)c(-c2ccc(F)cc2)n1 [Example 61, 3-[3-(4-Fluorophenyl)-4-(6-phenylfuro[2,3-d]pyrimidin-4-yl)-1H-pyrazol-1-yl]-N,N-dimethylpropane-1-sulfonamide]",,,
4.1,3.71,0.272,255,0.173,"CN1CCN(c2ccc(-c3nc4c(-c5cn(CCCO)nc5-c5ccc(F)cc5)ccnc4[nH]3)cc2)CC1 [Example 13, 3-[3-(4-Fluorophenyl)-4-{2-[4-(4-methylpiperazin-1-yl)phenyl]-3H-imidazo[4,5-b]pyridin-7-yl}-1H-pyrazol-1-yl]propan-1-ol]",,,
23.8,39.9,0.37,1280,0.23,"Fc1ccc(-c2nn([C@H]3CCOC3)cc2-c2ncnc3oc(-c4ccccc4)cc23)cc1 (single isomer, unassigned) [Example 91]",,,
19.6,19.6,1.09,754,1.14,"OCCCc1nc(-c2ccc(F)cc2)c(-c2ccnc3[nH]c(-c4ccccc4)cc23)s1 [Example 8, 3-[4-(4-Fluorophenyl)-5-(2-phenyl-1H-pyrrolo[2,3-b]pyridin-4-yl)-1,3-thiazol-2-yl]propan-1-01]",,,
80.9,56,0.77,2490,0.48,"O=S1(=O)CC[C@H](n2cc(-c3ncnc4oc(-c5ccccc5)cc34)c(-c3ccc(F)cc3)n2)C1 (single isomer, unassigned) [Example 73]",,,
27.5,33.8,0.58,1860,0.39,"Fc1ccc(-c2nn(C3CCOC3)cc2-c2ncnc3oc(-c4ccccc4)cc23)cc1 (racemic) [Example 85, 4-[3-(4-Fluorophenyl)-1-(oxolan-3-yl)-1H-pyrazol-4-yl]-6-phenylfuro[2,3-d]pyrimidine]",,,

Structure (SMILES),IC50 (BaF3_EGFR LR/CS cells; [3]) [nM],IC50 (BaF3_EGFR d19/CS cells; [4]) [nM],IC50 [1] [nM],IC50 (Ba/F3_EGFR WT cells; [5]) [nM],IC50 [2] [nM],IC50 (BaF3_EGFR LR/CS cells; 72 h) [nM],IC50 (BaF3_EGFR d19/CS cells; 72 h) [nM],IC50 (Ba/F3_EGFR WT cells; 72 h) [nM]
"N#CCCCn1cc(-c2ncnc3oc(-c4ccccc4)cc23)c(-c2ccc(F)cc2)n1 [Example 116, 4-[3-(4-Fluorophenyl)-4-(6-phenylfuro[2,3-d]pyrimidin-4-yl)-1H-pyrazol-1-yl]butanenitrile]",,,0.37,,0.23,22.9,47.6,1510
